In PubChem BioAssay AID1963451 (Molecular Pharmacology Branch, DTP, NCI, 2024):

Test system: 521955-158-R6-J3-PDC complex spheroid growth, % test/control
Test: Anticancer human tumor 521955-158-R6-J3-PDC patient-derived pancreatic carcinoma cell line growth inhibition [Asc]
Conditions: for IC50: curve of first compound; for viability, T/C: stronger effect = lower value; active = viability on the fitted dose curve at most 10% of control; inactive = the rest
Method in brief: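 Tumor cells were grown as complex spheroids with human endothelial cells (HUVEC) and human mesenchymal stem cells as stroma. Agents were tested alone and in combination, in half-log steps down from the clinical Cmax, or from 10 microM where Cmax was unknown.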

[1] = second compound 0.00316 µM, first compound 0.00949 µM
[2] = second compound 0.00316 µM, first compound 0.03 µM
[3] = second compound 0.00316 µM, first compound 0.0949 µM
[4] = second compound 0.00316 µM, first compound 0.3 µM
[5] = second compound 0.00316 µM, first compound 0.949 µM
[6] = second compound 0.00316 µM, first compound 3 µM
[7] = second compound 0.01 µM, first compound 0.00949 µM
[8] = second compound 0.01 µM, first compound 0.03 µM
[9] = second compound 0.01 µM, first compound 0.0949 µM
[10] = second compound 0.01 µM, first compound 0.3 µM
[11] = second compound 0.01 µM, first compound 0.949 µM
[12] = second compound 0.01 µM, first compound 3 µM
[13] = second compound 0.0316 µM, first compound 0.00949 µM
[14] = second compound 0.0316 µM, first compound 0.03 µM
[15] = second compound 0.0316 µM, first compound 0.0949 µM
[16] = second compound 0.0316 µM, first compound 0.3 µM
[17] = second compound 0.0316 µM, first compound 0.949 µM
[18] = second compound 0.0316 µM, first compound 3 µM
[19] = second compound 0.1 µM, first compound 0.00949 µM
[20] = second compound 0.1 µM, first compound 0.03 µM
[21] = second compound 0.1 µM, first compound 0.0949 µM
[22] = second compound 0.1 µM, first compound 0.3 µM
[23] = second compound 0.1 µM, first compound 0.949 µM
[24] = second compound 0.1 µM, first compound 3 µM
[25] = second compound 0.316 µM, first compound 0.00949 µM
[26] = second compound 0.316 µM, first compound 0.03 µM
[27] = second compound 0.316 µM, first compound 0.0949 µM
[28] = second compound 0.316 µM, first compound 0.3 µM
[29] = second compound 0.316 µM, first compound 0.949 µM
[30] = second compound 0.316 µM, first compound 3 µM
[31] = second compound 1 µM, first compound 0.00949 µM
[32] = second compound 1 µM, first compound 0.03 µM
[33] = second compound 1 µM, first compound 0.0949 µM
[34] = second compound 1 µM, first compound 0.3 µM
[35] = second compound 1 µM, first compound 0.949 µM
[36] = second compound 1 µM, first compound 3 µM
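Also: spheroids exposed to compounds for 7 days.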
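For viability, T/C in this document: 100% = DMSO vehicle control wells.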

CCN1C(C(=O)NC23CCC(C(=O)O)(CC2)CC3)C(c2cccc(Cl)c2F)C2(C(=O)Nc3cc(Cl)ccc32)C12CCCCC2 (stereo unspecified) + CNC(C)C(=O)NC1CN(S(=O)(=O)c2cccc(S(=O)(=O)N3CCC4CCC(C(=O)NC(c5ccccc5)c5ccccc5)N4C(=O)C(NC(=O)C(C)NC)C3)c2)CCC2CCC(C(=O)NC(c3ccccc3)c3ccccc3)N2C1=O
inactive: viability, T/C [1] 110% | viability, T/C [2] 110% | viability, T/C [3] 89.7% | viability, T/C [4] 111% | viability, T/C [5] 99.5% | viability, T/C [6] 97.5% | viability, T/C [7] 111% | viability, T/C [8] 90.1% | viability, T/C [9] 99.4% | viability, T/C [10] 98.8% | viability, T/C [11] 102% | viability, T/C [12] 103% | viability, T/C [13] 106% | viability, T/C [14] 78.3% | viability, T/C [15] 91.3% | viability, T/C [16] 96.3% | viability, T/C [17] 85.9% | viability, T/C [18] 85.3% | viability, T/C [19] 86.8% | viability, T/C [20] 92.4% | viability, T/C [21] 81.9% | viability, T/C [22] 92% | viability, T/C [23] 93.3% | viability, T/C [24] 96.4% | viability, T/C [25] 70.1% | viability, T/C [26] 82.4% | viability, T/C [27] 97.7% | viability, T/C [28] 83.3% | viability, T/C [29] 82.1% | viability, T/C [30] 88.2% | viability, T/C [31] 85.2% | viability, T/C [32] 102% | viability, T/C [33] 90.1% | viability, T/C [34] 83% | viability, T/C [35] 84.9% | viability, T/C [36] 96.4%
> 3 µM: IC50 (second compound 0.00316 µM) | IC50 (second compound 0.01 µM) | IC50 (second compound 0.0316 µM) | IC50 (second compound 0.1 µM) | IC50 (second compound 0.316 µM) | IC50 (second compound 1 µM)

NC1CCC(NC2CC2c2ccccc2)CC1 (stereo unspecified) + Cc1c(S(C)(=O)=O)c(-c2cc(F)cc(N3CCN(c4ccc(NS(=O)(=O)c5ccc(NC(CCN6CCC(C(=O)OCCCP(=O)(O)O)CC6)CSc6ccccc6)c(S(=O)(=O)C(F)(F)F)c5)cc4)CC3)c2)c(-c2ccc(Cl)cc2)n1C(C)C
> 0.1 µM: IC50 (second compound 0.0316 µM) | IC50 (second compound 0.1 µM)
inactive: viability, T/C (second compound 0.0316 µM, first compound 0.000316 µM) 83.7% | viability, T/C (second compound 0.0316 µM, first compound 0.001 µM) 97.1% | viability, T/C (second compound 0.0316 µM, first compound 0.00316 µM) 80.8% | viability, T/C (second compound 0.0316 µM, first compound 0.01 µM) 92.7% | viability, T/C (second compound 0.0316 µM, first compound 0.0316 µM) 96.6% | viability, T/C (second compound 0.0316 µM, first compound 0.1 µM) 90.4% | viability, T/C (second compound 0.1 µM, first compound 0.000316 µM) 97.7% | viability, T/C (second compound 0.1 µM, first compound 0.001 µM) 94.7% | viability, T/C (second compound 0.1 µM, first compound 0.00316 µM) 87.4% | viability, T/C (second compound 0.1 µM, first compound 0.01 µM) 74.8% | viability, T/C (second compound 0.1 µM, first compound 0.0316 µM) 79.1% | viability, T/C (second compound 0.1 µM, first compound 0.1 µM) 73.3% | viability, T/C (second compound 0.316 µM, first compound 0.000316 µM) 47.1% | viability, T/C (second compound 0.316 µM, first compound 0.001 µM) 51.2% | viability, T/C (second compound 0.316 µM, first compound 0.00316 µM) 55.4% | viability, T/C (second compound 0.316 µM, first compound 0.01 µM) 61.9% | viability, T/C (second compound 0.316 µM, first compound 0.0316 µM) 43.9% | viability, T/C (second compound 0.316 µM, first compound 0.1 µM) 63.8% | viability, T/C (second compound 1 µM, first compound 0.000316 µM) 29% | viability, T/C (second compound 1 µM, first compound 0.001 µM) 36.1% | viability, T/C (second compound 1 µM, first compound 0.00316 µM) 38.5% | viability, T/C (second compound 1 µM, first compound 0.01 µM) 29.1% | viability, T/C (second compound 1 µM, first compound 0.0316 µM) 45.4% | viability, T/C (second compound 1 µM, first compound 0.1 µM) 36.6% | viability, T/C (second compound 3.16 µM, first compound 0.000316 µM) 16.8% | viability, T/C (second compound 3.16 µM, first compound 0.001 µM) 19.4% | viability, T/C (second compound 3.16 µM, first compound 0.00316 µM) 20% | viability, T/C (second compound 3.16 µM, first compound 0.01 µM) 20.5% | viability, T/C (second compound 3.16 µM, first compound 0.0316 µM) 20.6% | viability, T/C (second compound 3.16 µM, first compound 0.1 µM) 18.4% | viability, T/C (second compound 10 µM, first compound 0.000316 µM) 16.8% | viability, T/C (second compound 10 µM, first compound 0.001 µM) 11.2% | viability, T/C (second compound 10 µM, first compound 0.00316 µM) 16.9% | viability, T/C (second compound 10 µM, first compound 0.01 µM) 11.9% | viability, T/C (second compound 10 µM, first compound 0.0316 µM) 11.8% | viability, T/C (second compound 10 µM, first compound 0.1 µM) 11.5%
< 0.000316 µM: IC50 (second compound 0.316 µM) | IC50 (second compound 1 µM) | IC50 (second compound 3.16 µM) | IC50 (second compound 10 µM)

Cc1nc(N2CCC3(CC2)COC(C)C3N)c(CO)nc1Sc1ccnc(N)c1Cl (stereo unspecified) + CNC(C)C(=O)NC1CN(S(=O)(=O)c2cccc(S(=O)(=O)N3CCC4CCC(C(=O)NC(c5ccccc5)c5ccccc5)N4C(=O)C(NC(=O)C(C)NC)C3)c2)CCC2CCC(C(=O)NC(c3ccccc3)c3ccccc3)N2C1=O
> 3 µM: IC50 (second compound 0.00316 µM) | IC50 (second compound 0.01 µM) | IC50 (second compound 0.0316 µM) | IC50 (second compound 0.1 µM) | IC50 (second compound 0.316 µM) | IC50 (second compound 1 µM)
inactive: viability, T/C [1] 99.5% | viability, T/C [2] 88.7% | viability, T/C [3] 73.2% | viability, T/C [4] 86.7% | viability, T/C [5] 73.4% | viability, T/C [6] 55% | viability, T/C [7] 109% | viability, T/C [8] 74% | viability, T/C [9] 79.4% | viability, T/C [10] 87.7% | viability, T/C [11] 69.9% | viability, T/C [12] 57.9% | viability, T/C [13] 90% | viability, T/C [14] 83.1% | viability, T/C [15] 81.1% | viability, T/C [16] 73.4% | viability, T/C [17] 63.6% | viability, T/C [18] 55% | viability, T/C [19] 94.6% | viability, T/C [20] 79.5% | viability, T/C [21] 82.3% | viability, T/C [22] 68.5% | viability, T/C [23] 60.1% | viability, T/C [24] 60.1% | viability, T/C [25] 82.9% | viability, T/C [26] 74.9% | viability, T/C [27] 77.4% | viability, T/C [28] 67.6% | viability, T/C [29] 62.5% | viability, T/C [30] 52.9% | viability, T/C [31] 82.7% | viability, T/C [32] 79.8% | viability, T/C [33] 74.6% | viability, T/C [34] 73% | viability, T/C [35] 73.9% | viability, T/C [36] 57.6%
